Laboratory results reported in paper PMC11987180 (Biology Direct, 2025).

Tests used:
[1] = target: T1, human indolethylamine N-methyltransferase (hINMT) (Homo sapiens, UniProt O95050); experiment: thermal shift assay; type: binding
[2] = target: T1, human indolethylamine N-methyltransferase (hINMT); experiment: quinoline-based continuous fluorometric methylation assay; type: biochemical

T1 sequence (O95050 whole entry): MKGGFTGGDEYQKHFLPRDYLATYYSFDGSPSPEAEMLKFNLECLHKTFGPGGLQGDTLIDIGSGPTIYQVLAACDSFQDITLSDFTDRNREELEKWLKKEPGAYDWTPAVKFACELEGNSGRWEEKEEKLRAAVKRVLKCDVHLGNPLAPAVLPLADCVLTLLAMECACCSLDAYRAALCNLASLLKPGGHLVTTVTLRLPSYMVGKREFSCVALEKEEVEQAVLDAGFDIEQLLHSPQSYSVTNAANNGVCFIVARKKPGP

Kd [1] [µM]	IC50 [2] [µM]	Structure (SMILES)
55.6 ± 2.6	–	C[S+](CC[C@H](N)C(=O)[O-])C[C@H]1O[C@@H](n2cnc3c(N)ncnc32)[C@H](O)[C@@H]1O (some centres unmarked) [SAM]
–	188.5 ± 1.8	CNS(=O)(=O)CCc1ccc2[nH]cc(C3CCN(C)CC3)c2c1 [Naratriptan]
